What was measured:
[1] = system: Ba/F3 (SLC34A2-ROS1 G2032R) cell line; assay: Anti-tumor effect in subcutaneous transplanted Ba/F3 (SLC34A2-ROS1 G2032R) model; type: in vivo, NOD-SCID mice; conditions: 100 mg/kg p.o. once daily; 21st day after administration
Text: Housing environment: SPF grade.
Environmental conditions of the housing room of the laboratory animals: All the laboratory animals were housed in individually ventilated cages with constant temperature and constant humidity. […] The animals were continuously provided with cobalt-60 irradiated complete pelleted mouse feed with unlimited free access. The animals drank tap water (used after being autoclaved), which was provided continuously from water bottles, allowing for free access. The cages for raising the mice were polysulfone mice cages, which were autoclaved before use, and measured 325 mm × 210 mm × 180 mm. The bedding was autoclaved corn cobs. Each cage contained 5 animals. The cage cards were marked with the IACUC approval number, experiment number, start time of the experiment, project leader, experimenters, source of the animals, group, and animal number. The laboratory animals were marked with ear tags or ear labels.
The Ba/F3 (SLC34A2-ROS1 G2032R) cells in the exponential growth phase were collected, resuspended in PBS to a suitable concentration, and then subcutaneously inoculated into nude mice for tumor formation.
Assay method: Female NOD/SCID mice were subcutaneously inoculated with 2×10^6 Ba/F3 (SLC34A2-ROS1 G2032R) cells on the right side to establish a subcutaneous tumor transplantation model. […] The mice were administered orally via gavage once daily. The efficacy was evaluated based on the relative tumor growth inhibition rate (TGI), and the safety was evaluated based on the changes in the body weight and mortality of the animals.
All the procedures, including drug administration, tumor measurement, weight measurement, etc., were performed in a biosafety cabinet or on a clean bench.
The relative tumor growth rate (T/C%) was the percentage value of the relative tumor volume between a treatment group and the control group at a certain time point, or the percentage value of the tumor weight between a treatment group and the control group. The calculation formula was: T/C% = TRTV / CRTV × 100% (TRTV: the average RTV of the treatment group; CRTV: the average RTV of the solvent control group; RTV = Vt / V0, wherein V0 is the tumor volume of the animal at the time of grouping, and Vt is the tumor volume of the animal after treatment); or T/C% = TTW / CTW × 100% (TTW: the average tumor weight at the end of the assay in the treatment group; CTW: the average tumor weight at the end of the assay in the solvent control group).
Statistical analysis: To compare the tumor volume on a given day across the different treatment groups, we first used the Bartlett's test to verify the assumption of homogeneity of variance among all the groups. When the p-value of the Bartlett's test was not less than 0.05, one-way ANOVA was used to test whether the means of all the groups were equal. If the p-value of the one-way ANOVA was less than 0.05, we would use the Tukey's HSD test for the pairwise comparisons between all the groups, or use the Dunnett's test for a pairwise comparison between each treatment group and the control group. When the p-value of the Bartlett's test was less than 0.05, the Kruskal-Wallis test was used to test whether the medians of all the groups were equal. […]

[2] = 100 mg of lorlatinib, GM (%CV), cited from earlier work

SMILES: C[C@@H](Oc1cc(-c2cnn(C3CCNCC3)c2)cnc1N)c1c(Cl)ccc(F)c1Cl [crizotinib, reference compound]
- average tumor volume [1]: 1651.66 mm^3

SMILES: C[C@H]1Oc2cc(cnc2N)-c2c(nn(C)c2C#N)CN(C)C(=O)c2ccc(F)cc21 [lorlatinib]
- AR ([2]; Multiple administrations): 0.718(55)[11]
- AUC0-τ ([2]; Multiple administrations): 5946(46)[11] h*ng/ mL
- Cmax, SS ([2]; Multiple administrations): 644.8(32)[11] ng/mL
- AUC(0-inf) ([2]; Single administration): 9590(11)[7] h*ng/ mL
- Cmax ([2]; Single administration): 907.2(24) [7] ng/mL
- T1/2 ([2]; Single administration): 20.0(22)[7] hour

Reference: EP4810038A1, “METHOD FOR TREATING ALK-POSITIVE OR ROS1-POSITIVE NON-SMALL CELL LUNG CANCER” (Shenzhen TargetRx Co., Ltd., priority 2023, dated 2025)
